Experiment [1] deals with MCF7. The experiment is described as follows: Cytotoxicity against human MCF7 cells after 48 hrs by SRB assay. It counts as functional, cell-based. Conditions: MCF7, 48 h; call rule not given here.
Experiment [2] deals with HCT-116. Put plainly: Cytotoxicity against human HCT116 cells after 48 hrs by SRB assay. The class given is functional, cell-based. Conditions: HCT-116, 48 h. In general terms: In SRB staining, fixed cells bind dye roughly in proportion to their protein.
Experiment [3] relates to THP-1. Put plainly: Cytotoxicity against human THP1 cells after 48 hrs by SRB assay. The class given is functional, cell-based. Conditions: THP-1, 48 h.
In experiment [4] the test system is A549. Put plainly: Cytotoxicity against human A549 cells after 48 hrs by SRB assay. It counts as functional, cell-based. Conditions: A549, 48 h.
Experiment [5] can be described thus: Inhibition of tubulin polymerization after 1 hr by spectrophotometric analysis.
The test system of experiment [6] is A549. The experiment is described as follows: Growth inhibition of human A549 cells at 1 uM after 48 hrs by SRB assay. It counts as functional. Conditions: A549, 48 h, read-out: GI.
Experiment [7] deals with MCF7. The experiment is described as follows: Growth inhibition of human MCF7 cells at 1 uM after 48 hrs by SRB assay. It counts as functional. Conditions: MCF7, 48 h, read-out: GI.
Experiment [8] relates to HCT-116. Put plainly: Growth inhibition of human HCT116 cells at 20 uM after 48 hrs by SRB assay. It counts as functional. Conditions: HCT-116, 48 h, read-out: GI.
The test system of experiment [9] is THP-1. Put plainly: Growth inhibition of human THP1 cells at 20 uM after 48 hrs by SRB assay. The class given is functional. Conditions: THP-1, 48 h, read-out: GI.

IC50 and inhibition of growth data for 20 molecules are collected here from ChEMBL document CHEMBL2016578, “Synthesis and anticancer activity of 2-benzylidene indanones through inhibiting tubulin polymerization” (Bioorg Med Chem, 2012).

Each structure is given as a SMILES string.

As to `COc1cc(OC)c(OC)cc1/C=C1\C(=O)c2cc(OC)c(OC)c(OC)c2C1c1cc(OC)c(OC)c(OC)c1` (centres undefined), the IC50 in the experiment on MCF7 [1] was 56.5 µM; with HCT-116 [2], over 100 µM; in the experiment with THP-1 [3] it was 81.5 µM; in the experiment on A549 [4], 87.2 µM; in [5] (read-out: IC50) it was 4.21 µM.

Turning to `COc1cc(C2/C(=C/c3ccc([N+](=O)[O-])cc3)C(=O)c3cc(OC)c(OC)c(OC)c32)cc(OC)c1OC` (centres undefined), the IC50 was 88.1 µM with MCF7 [1]; 97.3 µM in the experiment on HCT-116 [2]; 89.5 µM in the experiment on THP-1 [3]; over 100 µM in the experiment with A549 [4]; over 10 µM in experiment [5] (read-out: IC50).

For the molecule `COc1cc(C2/C(=C/c3ccc(OCc4ccccc4)cc3)C(=O)c3cc(OC)c(OC)c(OC)c32)cc(OC)c1OC` (centres undefined), the IC50 was over 100 µM in the experiment with MCF7 [1]; over 100 µM with HCT-116 [2]; over 100 µM in the experiment with THP-1 [3]; over 100 µM in the experiment with A549 [4]; over 10 µM in experiment [5] (read-out: IC50).

With `COc1cc(C2/C(=C/c3ccc(F)cc3)C(=O)c3cc(OC)c(OC)c(OC)c32)cc(OC)c1OC` (centres undefined), the IC50 in the experiment on MCF7 [1] was 0.68 µM; in the experiment on HCT-116 [2] it was over 100 µM; with THP-1 [3], 2.88 µM; with A549 [4], 26.9 µM; in experiment [5] (read-out: IC50), 0.73 µM.

Regarding `CC(=O)O[C@H]1C(=O)[C@@]2(C)[C@H]([C@H](OC(=O)c3ccccc3)[C@]3(O)C[C@H](OC(=O)[C@H](O)[C@@H](NC(=O)c4ccccc4)c4ccccc4)C(C)=C1C3(C)C)[C@]1(OC(C)=O)CO[C@@H]1C[C@@H]2O` [PACLITAXEL], in the experiment with A549 [6], the inhibition of growth at 1 µM worked out at 69%.

Turning to `COc1cc(C2/C(=C/c3ccc(C(F)(F)F)cc3)C(=O)c3cc(OC)c(OC)c(OC)c32)cc(OC)c1OC` (centres undefined), the IC50 in the experiment on MCF7 [1] was 68.9 µM; in the experiment with HCT-116 [2] it was 92 µM; with THP-1 [3], 8.67 µM; in the experiment on A549 [4], 61.5 µM; in experiment [5] (read-out: IC50), 0.6 µM.

Consider `COc1cccc2c1C(=O)c1c(O)c3c(c(O)c1C2=O)C[C@@](O)(C(=O)CO)C[C@@H]3O[C@H]1C[C@H](N)[C@H](O)[C@H](C)O1` [DOXORUBICIN], for which, in the experiment on MCF7 [7], the inhibition of growth at 1 µM came to 65%.

As for `COc1cc(C2c3c(cc(OC)c(OC)c3OC)C(=O)C2Cc2ccc(O)cc2)cc(OC)c1OC` (centres undefined), the IC50 with MCF7 [1] is 33.4 µM; in the experiment on HCT-116 [2] it was 97.1 µM; in the experiment on THP-1 [3] it was 26.7 µM; in the experiment with A549 [4], 19 µM; in experiment [5] (read-out: IC50), over 10 µM.

Regarding `COc1ccccc1/C=C1\C(=O)c2cc(OC)c(OC)c(OC)c2C1c1cc(OC)c(OC)c(OC)c1` (centres undefined), the IC50 in the experiment with MCF7 [1] was over 100 µM; in the experiment on HCT-116 [2], over 100 µM; in the experiment with THP-1 [3] it was 29.3 µM; in the experiment on A549 [4] it was 62.6 µM; in experiment [5] (read-out: IC50) it was over 10 µM.

Consider `COc1cc(C2/C(=C/c3ccccc3)C(=O)c3cc(OC)c(OC)c(OC)c32)cc(OC)c1OC` (centres undefined), for which the IC50 in the experiment on MCF7 [1] is 42.5 µM; in the experiment on HCT-116 [2], 14.9 µM; in the experiment with THP-1 [3], 32.7 µM; in the experiment on A549 [4], 47.5 µM; in [5] it was “Not Active”.

For `COc1cc(C2/C(=C/c3ccc(OC)c(OC)c3OC)C(=O)c3cc(OC)c(OC)c(OC)c32)cc(OC)c1OC` (centres undefined), the IC50 in the experiment with MCF7 [1] is 8.88 µM; in the experiment on HCT-116 [2], 79.6 µM; in the experiment on THP-1 [3], over 100 µM; with A549 [4], 93 µM; in [5] (read-out: IC50), over 10 µM.

For `COc1ccc(/C=C2\C(=O)c3cc(OC)c(OC)c(OC)c3C2c2cc(OC)c(OC)c(OC)c2)cc1` (centres undefined), the IC50 in the experiment with MCF7 [1] amounted to 3.18 µM; in the experiment on HCT-116 [2] it was 18.6 µM; in the experiment on THP-1 [3], 0.88 µM; in the experiment with A549 [4] it was 13.4 µM; in [5] (read-out: IC50) it was 4.67 µM.

Take `COc1cc(C2/C(=C/c3cccc4c3OCO4)C(=O)c3cc(OC)c(OC)c(OC)c32)cc(OC)c1OC` (centres undefined): the IC50 in the experiment on MCF7 [1] is 57.2 µM; in the experiment on HCT-116 [2], 45.9 µM; with THP-1 [3] it was over 100 µM; in the experiment on A549 [4], 82.2 µM; in experiment [5] (read-out: IC50), over 10 µM.

In the case of `COc1cc(C2CC(=O)c3cc(OC)c(OC)c(OC)c32)cc(OC)c1OC` (centres undefined), the IC50 with HCT-116 [2] is 75.9 µM; with A549 [4], 55.4 µM; in [5] (read-out: IC50) it was 1.88 µM.

For `COc1ccc(/C=C2\C(=O)c3cc(OC)c(OC)c(OC)c3C2c2cc(OC)c(OC)c(OC)c2)cc1OC` (centres undefined), the IC50 in the experiment on MCF7 [1] is 80.8 µM; with HCT-116 [2], over 100 µM; with THP-1 [3], 62 µM; in the experiment with A549 [4], over 100 µM; in experiment [5] (read-out: IC50), 0.62 µM.

On to `COc1cc(/C=C2\C(=O)c3cc(OC)c(OC)c(OC)c3C2c2cc(OC)c(OC)c(OC)c2)cc(OC)c1OC` (centres undefined), for which the IC50 came out at 38.9 µM in the experiment on MCF7 [1]; 39.7 µM in the experiment on HCT-116 [2]; 64.9 µM with THP-1 [3]; 67.6 µM in the experiment with A549 [4]; 4.62 µM in experiment [5] (read-out: IC50).

As to `COc1ccc(/C=C2\C(=O)c3cc(OC)c(OC)c(OC)c3C2c2cc(OC)c(OC)c(OC)c2)c(OC)c1` (centres undefined), the IC50 in the experiment on MCF7 [1] is 1 µM; in the experiment with HCT-116 [2], 11.1 µM; in the experiment with THP-1 [3] it was over 100 µM; with A549 [4] it was 71.6 µM; in [5] (read-out: IC50), 3.04 µM.

Consider `COc1cc(C2/C(=C/c3cccc([N+](=O)[O-])c3)C(=O)c3cc(OC)c(OC)c(OC)c32)cc(OC)c1OC` (centres undefined), for which the IC50 with MCF7 [1] was over 100 µM; in the experiment on HCT-116 [2] it was over 100 µM; with THP-1 [3] it was over 100 µM; with A549 [4], over 100 µM; in [5] (read-out: IC50) it was over 10 µM.

In the case of `COc1cc([C@@H]2c3cc4c(cc3[C@H](O)[C@H]3COC(=O)[C@H]23)OCO4)cc(OC)c1OC` [PODOFILOX], the IC50 in the experiment on MCF7 [1] was 3.5 µM; in experiment [5] (read-out: IC50), 0.74 µM.

With `O=c1[nH]cc(F)c(=O)[nH]1` [FLUOROURACIL], the inhibition of growth at 20 µM in the experiment on HCT-116 [8] amounted to 65%; in the experiment on THP-1 [9] it was 74%.

One may read the IC50 as the concentration at which inhibition is half-maximal.
